One test addresses p110 delta (Homo sapiens (Human), UniProt O00329). The test can be described thus: PI3K isoform inhibition assay, p110 delta (fluorescence polarization displacement). It counts as biochemical. (In fluorescence polarisation assays a small probe gives low polarisation when free and higher when bound to something large.)
In test [1] the test system is CD69 production by B lymphocytes in human whole blood activated with anti-human IgM. The test can be described thus: CD69 Whole Blood Assay. The settings on record: Lymphocyte, anti-IgM stimulated, CD69 positive of CD20 positive cells. It counts as cell-based. An excerpt: There is good evidence that B-cells play a key role in the pathogenesis of autoimmune and/or inflammatory disease. Protein-based therapeutics that deplete B cells such as Rituxan are effective against autoantibody-driven inflammatory diseases such as rheumatoid arthritis (Rastetter et al. (2004) Annu Rev Med 55:477). CD69 is the early activation marker in leukocytes including T cells, thymocytes, B cells, NK cells, neutrophils, and eosinophils. The CD69 human whole blood assay (Example 903) determines the ability of compounds to inhibit the production of CD69 by B lymphocytes in human whole blood activated by crosslinking surface IgM with goat F(ab′)2 anti-human IgM.
Human blood is obtained from healthy volunteers, with the following restrictions: 1 week drug-free, non-smokers. Blood (approximately 20 mls to test 8 compounds) is collected by venipuncture into Vacutainer tubes with sodium heparin.
Solutions of Formula I compounds at 1000 or 2000 μM in PBS (20×), are diluted by three-fold serial dilutions in 10% DMSO in PBS for a nine point dose-response curve. An aliquot of 5.5 μl of each compound is added in duplicate to a 2 ml 96-well plate; 5.5 μl of 10% DMSO in PBS is added as control and no-stimulus wells. Human whole blood—HWB (100 μl) is added to each well. After mixing the plates are incubated at 37° C., 5% CO2, 100% humidity for 30 minutes. Goat F(ab′)2 anti-human IgM (10 μl of a 500 μg/ml solution, 50 μg/ml final) is added to each well (except the no-stimulus wells) with mixing and the plates are incubated for an additional 20 hours. At the end of the 20 hour incubation, samples are incubated with fluorescent labeled antibodies for 30 minutes, at 37° C., 5% CO2, 100% humidity. Include induced control, unstained and single stains for compensation adjustments and initial voltage settings. Samples are then lysed with Pharmingen Lyse according to the manufacturer's instructions. Samples are then transferred to a 96 well plate suitable to be run on the AMS 96 well system on the BD Calibur FACs machine. Data acquired and Mean Fluorescence Intensity values were obtained using Cell Quest Software. Results are initially analyzed by FACS analysis software (Flow Jo).

The target in another test is p110 alpha (Homo sapiens (Human), UniProt P42336). As to the kind of experiment: PI3K isoform inhibition assay, p110 alpha (for alpha/delta selectivity). The settings on record: ratio of biochemical IC50 values. An outline of the steps:
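Fluorescence polarization displacement of a fluorescent PIP3 probe from GRP-1 detector by PI3K-formed PIP3; p110α/p85α at 40 ng/mL with 10 μM PIP2 substrate.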

The source of these data is US9090628B2, “Benzoxazepin compounds selective for PI3K P110 delta and methods of use” (GENENTECH, INC., priority 2011, dated 2015).

A word on the IC50: it is the point on the concentration scale where inhibition reaches its midpoint. Low readings indicate greater potency, high ones weaker potency.

Chain of p110 delta (O00329 whole entry, canonical isoform): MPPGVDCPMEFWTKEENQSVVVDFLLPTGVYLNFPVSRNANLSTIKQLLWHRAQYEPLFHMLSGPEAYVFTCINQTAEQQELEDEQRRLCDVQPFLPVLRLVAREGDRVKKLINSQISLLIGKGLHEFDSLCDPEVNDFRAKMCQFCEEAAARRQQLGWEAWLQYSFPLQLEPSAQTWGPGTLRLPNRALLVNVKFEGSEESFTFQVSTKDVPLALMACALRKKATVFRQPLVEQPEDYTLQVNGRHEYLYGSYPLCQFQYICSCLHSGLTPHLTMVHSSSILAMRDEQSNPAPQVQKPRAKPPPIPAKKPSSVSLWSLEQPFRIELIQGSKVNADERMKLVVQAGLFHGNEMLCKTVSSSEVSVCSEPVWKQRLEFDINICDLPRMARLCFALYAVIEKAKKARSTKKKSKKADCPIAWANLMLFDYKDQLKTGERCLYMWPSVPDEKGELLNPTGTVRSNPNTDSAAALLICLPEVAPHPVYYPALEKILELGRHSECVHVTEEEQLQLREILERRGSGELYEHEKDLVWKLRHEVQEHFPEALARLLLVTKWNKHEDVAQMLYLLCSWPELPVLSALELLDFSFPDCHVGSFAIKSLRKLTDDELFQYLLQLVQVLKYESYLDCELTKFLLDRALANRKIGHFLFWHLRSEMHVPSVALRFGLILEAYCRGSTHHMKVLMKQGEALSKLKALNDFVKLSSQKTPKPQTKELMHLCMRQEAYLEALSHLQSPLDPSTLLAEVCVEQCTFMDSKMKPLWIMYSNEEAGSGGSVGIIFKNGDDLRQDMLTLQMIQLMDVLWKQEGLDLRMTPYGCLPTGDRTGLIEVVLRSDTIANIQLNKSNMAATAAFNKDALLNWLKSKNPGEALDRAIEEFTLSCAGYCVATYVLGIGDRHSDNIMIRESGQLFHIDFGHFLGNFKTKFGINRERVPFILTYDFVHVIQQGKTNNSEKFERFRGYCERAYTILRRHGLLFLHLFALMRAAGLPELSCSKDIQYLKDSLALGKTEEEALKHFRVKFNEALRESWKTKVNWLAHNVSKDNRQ
Chain of p110 delta (P27986 whole entry partner, canonical isoform): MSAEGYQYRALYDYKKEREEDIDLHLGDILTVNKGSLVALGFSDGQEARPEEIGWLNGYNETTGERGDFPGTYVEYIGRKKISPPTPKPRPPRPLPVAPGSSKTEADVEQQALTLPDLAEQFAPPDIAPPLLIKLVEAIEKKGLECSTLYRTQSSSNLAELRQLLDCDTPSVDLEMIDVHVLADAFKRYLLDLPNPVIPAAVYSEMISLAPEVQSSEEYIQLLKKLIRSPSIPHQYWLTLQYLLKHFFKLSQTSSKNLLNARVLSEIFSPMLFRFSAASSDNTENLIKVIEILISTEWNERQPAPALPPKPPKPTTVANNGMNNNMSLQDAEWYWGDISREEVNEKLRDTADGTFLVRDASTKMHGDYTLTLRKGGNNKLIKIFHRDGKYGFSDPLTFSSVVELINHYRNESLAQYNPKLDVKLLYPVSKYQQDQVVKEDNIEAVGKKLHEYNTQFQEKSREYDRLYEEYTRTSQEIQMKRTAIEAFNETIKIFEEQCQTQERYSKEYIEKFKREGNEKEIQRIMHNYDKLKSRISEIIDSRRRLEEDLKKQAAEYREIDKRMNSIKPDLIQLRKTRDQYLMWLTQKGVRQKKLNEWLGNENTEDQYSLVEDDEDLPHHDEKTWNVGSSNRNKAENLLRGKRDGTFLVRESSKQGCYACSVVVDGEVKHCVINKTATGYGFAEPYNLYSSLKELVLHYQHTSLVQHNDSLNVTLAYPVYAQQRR
Chain of p110 alpha (P42336 whole entry, canonical isoform): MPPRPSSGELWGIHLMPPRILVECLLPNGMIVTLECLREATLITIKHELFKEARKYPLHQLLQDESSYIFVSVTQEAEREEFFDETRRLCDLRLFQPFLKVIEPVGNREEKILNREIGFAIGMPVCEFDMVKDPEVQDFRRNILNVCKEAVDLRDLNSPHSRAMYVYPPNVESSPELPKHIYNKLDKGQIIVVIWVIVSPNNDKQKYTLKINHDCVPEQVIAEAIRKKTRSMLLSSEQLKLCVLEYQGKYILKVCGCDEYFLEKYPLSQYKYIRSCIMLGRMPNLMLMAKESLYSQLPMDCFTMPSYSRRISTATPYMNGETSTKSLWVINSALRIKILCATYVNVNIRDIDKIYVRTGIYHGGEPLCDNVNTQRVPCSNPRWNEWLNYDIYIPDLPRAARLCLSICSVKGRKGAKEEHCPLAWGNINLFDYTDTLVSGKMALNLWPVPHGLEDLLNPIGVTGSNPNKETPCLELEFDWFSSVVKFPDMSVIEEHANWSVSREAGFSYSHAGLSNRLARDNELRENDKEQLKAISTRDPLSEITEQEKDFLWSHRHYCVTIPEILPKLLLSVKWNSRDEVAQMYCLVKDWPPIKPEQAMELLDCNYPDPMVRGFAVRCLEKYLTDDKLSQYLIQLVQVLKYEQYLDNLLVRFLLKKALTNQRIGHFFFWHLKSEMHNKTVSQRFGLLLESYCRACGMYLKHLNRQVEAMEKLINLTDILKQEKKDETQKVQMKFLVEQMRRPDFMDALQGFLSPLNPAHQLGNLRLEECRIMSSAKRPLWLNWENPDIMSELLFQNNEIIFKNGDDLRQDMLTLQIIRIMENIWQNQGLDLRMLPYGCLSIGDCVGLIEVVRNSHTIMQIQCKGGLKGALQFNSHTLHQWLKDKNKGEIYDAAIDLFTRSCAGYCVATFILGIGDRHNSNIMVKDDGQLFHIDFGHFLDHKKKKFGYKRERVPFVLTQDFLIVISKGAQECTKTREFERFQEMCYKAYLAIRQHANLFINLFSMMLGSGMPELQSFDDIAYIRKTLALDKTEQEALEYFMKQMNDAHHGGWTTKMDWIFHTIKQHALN
Chain of p110 alpha (P27986 whole entry partner, canonical isoform): as the sequence (P27986 whole entry partner, canonical isoform) above

Turning to `CC(C)n1ncnc1-c1cn2c(n1)-c1cc(CN3CCN(C(C)(C)C)CC3)ccc1OCC2` [Example 108, 10-((4-tert-butylpiperazin-1-yl)methyl)-2-(1-isopropyl-1H-1,2,4-triazol-5-yl)-5,6-dihydrobenzo[f]imidazo[1,2-d][1,4]oxazepine], the values for the IC50 (on p110 delta; in test [1]) were 2.46 nM and 40.5 nM, respectively. Further, the “IC50 p110 alpha/IC50 p110 delta” value on p110 alpha came to 21.8.
For the compound `CC(C)n1ncnc1-c1cn2c(n1)-c1cc(C(=O)N3CCN(C(C)(C)C)CC3)ccc1OCC2` [Example 110, (4-tert-butylpiperazin-1-yl)(2-(1-isopropyl-1H-1,2,4-triazol-5-yl)-5,6-dihydrobenzo[f]imidazo[1,2-d][1,4]oxazepin-10-yl)methanone], the IC50 at p110 delta was 0.919 nM; in test [1], 129 nM. Also, on p110 alpha, the “IC50 p110 alpha/IC50 p110 delta” value is on record as 27.1.
`CC(C)n1ncnc1-c1cn2c(n1)-c1cnc(N3CCCC3C3CCN(C)CC3)cc1OCC2` (stereo not drawn) [Example 115, 2-(1-isopropyl-1H-1,2,4-triazol-5-yl)-9-(2-(1-methylpiperidin-4-yl)pyrrolidin-1-yl)-5,6-dihydroimidazo[1,2-d]pyrido[3,4-f][1,4]oxazepine] returned an IC50 in test [1] of 38.1 nM.
As for `CC(Oc1ccc2c(c1)OCCn1cc(-c3ncnn3C(C)C)nc1-2)C1CCN(C(C)C)CC1` (stereo not drawn) [Example 143, 2-(1-isopropyl-1H-1,2,4-triazol-5-yl)-9-(1-(1-isopropylpiperidin-4-yl)ethoxy)-5,6-dihydrobenzo[f]imidazo[1,2-d][1,4]oxazepine], the IC50 was found to be 0.442 nM at p110 delta and 58.2 nM in test [1]. In addition, the “IC50 p110 alpha/IC50 p110 delta” value on p110 alpha amounted to 14.4.
With `CC(C)n1ncnc1-c1cn2c(n1)-c1ccc(-c3ccnn3C3CCN(C)CC3)cc1OCC2` [Example 160, 2-(1-isopropyl-1H-1,2,4-triazol-5-yl)-9-(1-(1-methylpiperidin-4-yl)-1H-pyrazol-5-yl)-5,6-dihydrobenzo[f]imidazo[1,2-d][1,4]oxazepine], half-maximal inhibition in test [1] (IC50) required 45.9 nM.
The same measure, in the same setting: under `Cc1nc(-c2cn3c(n2)-c2ccc(-c4cnn(C)c4C4CCCN(C(C)(C)CO)C4)cc2OCC3)n(C(C)C)n1` (stereo not drawn) [Example 248, 2-(3-(4-(2-(1-isopropyl-3-methyl-1H-1,2,4-triazol-5-yl)-5,6-dihydrobenzo[f]imidazo[1,2-d][1,4]oxazepin-9-yl)-1-methyl-1H-pyrazol-5-yl)piperidin-1-yl)-2-methylpropan-1-ol] stands 49.7 nM; under `Cc1nc(-c2cn3c(n2)-c2ccc(N4CCC[C@@H]4C4CCN(C(C)C)CC4)cc2OCC3)n(C(C)C)n1` [Example 263, (R)-2-(1-isopropyl-3-methyl-1H-1,2,4-triazol-5-yl)-9-(2-(1-isopropylpiperidin-4-yl)pyrrolidin-1-yl)-5,6-dihydrobenzo[f]imidazo[1,2-d][1,4]oxazepine], 45.8 nM.
At p110 delta, `Cc1nc(-c2cn3c(n2)-c2cc([C@@H](C)N4CCN(C(C)(C)CO)CC4)ncc2OCC3)n(C(C)C)n1` [Example 365, (R)-2-(4-(1-(2-(1-isopropyl-3-methyl-1H-1,2,4-triazol-5-yl)-5,6-dihydroimidazo[1,2-d]pyrido[4,3-f][1,4]oxazepin-10-yl)ethyl)piperazin-1-yl)-2-methylpropan-1-ol] came in with an IC50 of 2.63 nM. For the same compound, the “IC50 p110 alpha/IC50 p110 delta” value at p110 alpha worked out at 83.2.
`Cc1nc(-c2cn3c(n2)-c2ccc(-c4cnn(C)c4C4CN(C(C)C)CCN4C)cc2OCC3)n(C(C)C)n1` (stereo not drawn) [Example 366, 9-[5-(4-isopropyl-1-methyl-piperazin-2-yl)-1-methyl-pyrazol-4-yl]-2-(2-isopropyl-5-methyl-1,2,4-triazol-3-yl)-5,6-dihydroimidazo[1,2-d][1,4]benzoxazepine] returned an IC50 on p110 delta below 0.035 nM. The “IC50 p110 alpha/IC50 p110 delta” value at p110 alpha is listed as 172.
Regarding `Cc1nc(-c2cn3c(n2)-c2ccc(-c4cnn(C)c4N4CCN(C)[C@H](C(C)C)C4)cc2OCC3)n(C(C)C)n1` [Example 367, 9-[5-[(3R)-3-isopropyl-4-methyl-piperazin-1-yl]-1-methyl-pyrazol-4-yl]-2-(2-isopropyl-5-methyl-1,2,4-triazol-3-yl)-5,6-dihydroimidazo[1,2-d][1,4]benzoxazepine], on p110 delta, the IC50 turned out to be 0.048 nM. In addition, on p110 alpha, the “IC50 p110 alpha/IC50 p110 delta” value was 48.8.
The corresponding values for `COc1cc2c(cc1[C@@H](C)N1CCN(C(C)(C)C)CC1)-c1nc(-c3nc(C)nn3C(C)C)cn1CCO2` [Example 368, 10-[(1R)-1-(4-tert-butylpiperazin-1-yl)ethyl]-2-(2-isopropyl-5-methyl-1,2,4-triazol-3-yl)-9-methoxy-5,6-dihydroimidazo[1,2-d][1,4]benzoxazepine] are 1.06 nM and 92.4.
As to `Cc1nc(-c2cn3c(n2)-c2ccc(-n4ccnc4C4CCCN(C(C)C)C4)cc2OCC3)n(C(C)C)n1` (stereo not drawn) [Example 369, 2-(2-isopropyl-5-methyl-1,2,4-triazol-3-yl)-9-[2-(1-isopropyl-3-piperidyl)imidazol-1-yl]-5,6-dihydroimidazo[1,2-d][1,4]benzoxazepine], the IC50 on p110 delta was found to be 3.09 nM. Besides, the “IC50 p110 alpha/IC50 p110 delta” value at p110 alpha is given as 40.4.
Turning to `Cc1nc(-c2cn3c(n2)-c2cnc(-c4cnn(C)c4C4CCCN(C(C)C)C4)cc2OCC3)n(C(C)C)n1` (stereo not drawn) [Example 370, 2-(1-isopropyl-3-methyl-1H-1,2,4-triazol-5-yl)-9-(5-(1-isopropylpiperidin-3-yl)-1-methyl-1H-pyrazol-4-yl)-5,6-dihydroimidazo[1,2-d]pyrido[3,4-f][1,4]oxazepine], at p110 delta, the IC50 was found to be 0.571 nM. Moreover, the “IC50 p110 alpha/IC50 p110 delta” value at p110 alpha was 16.1.
As for `COc1cc2c(cc1[C@H](C)N1CCN(C(C)(C)C)CC1)-c1nc(-c3nc(C)nn3C(C)C)cn1CCO2` [Example 371, 10-[(1S)-1-(4-tert-butylpiperazin-1-yl)ethyl]-2-(2-isopropyl-5-methyl-1,2,4-triazol-3-yl)-9-methoxy-5,6-dihydroimidazo[1,2-d][1,4]benzoxazepine], the IC50 at p110 delta amounted to 5.3 nM. Moreover, the “IC50 p110 alpha/IC50 p110 delta” value at p110 alpha is 11.7.
Consider `Cc1nc(-c2cn3c(n2)-c2ccc(-c4cnn(C)c4C4CN(C(C)C)CCO4)cc2OCC3)n(C(C)C)n1` (stereo not drawn) [Example 372, 2-(2-isopropyl-5-methyl-1,2,4-triazol-3-yl)-9-[5-(4-isopropylmorpholin-2-yl)-1-methyl-pyrazol-4-yl]-5,6-dihydroimidazo[1,2-d][1,4]benzoxazepine], for which the IC50 on p110 delta came out at 0.992 nM. Further, the “IC50 p110 alpha/IC50 p110 delta” value at p110 alpha is 18.
Regarding `Cc1nc(-c2cn3c(n2)-c2cc(C(C)N4CCN(C)CC4)c(F)cc2OCC3)n(C(C)C)n1` (stereo not drawn) [Example 373, 9-fluoro-2-(2-isopropyl-5-methyl-1,2,4-triazol-3-yl)-10-[1-(4-methylpiperazin-1-yl)ethyl]-5,6-dihydroimidazo[1,2-d][1,4]benzoxazepine], the IC50 at p110 delta is 3.13 nM. Moreover, at p110 alpha, the “IC50 p110 alpha/IC50 p110 delta” value is on record as 15.7.
As to `CCN1CCN(C(C)c2cc3c(cc2F)OCCn2cc(-c4nc(C)nn4C(C)C)nc2-3)CC1` (stereo not drawn) [Example 374, 10-[1-(4-ethylpiperazin-1-yl)ethyl]-9-fluoro-2-(2-isopropyl-5-methyl-1,2,4-triazol-3-yl)-5,6-dihydroimidazo[1,2-d][1,4]benzoxazepine], the IC50 at p110 delta turned out to be 4.85 nM. Moreover, the “IC50 p110 alpha/IC50 p110 delta” value on p110 alpha amounted to 17.9.
